{
  "source": "patent US20090029366A1",
  "about": "(priority 2007, published 2009)",
  "biological_target": "T1, human HCN1 (Homo sapiens, UniProt O60741)",
  "T1 construct": "expressed in transfected cells; host or cells: HEK-293H",
  "T1 sequence (O60741 1-890)": "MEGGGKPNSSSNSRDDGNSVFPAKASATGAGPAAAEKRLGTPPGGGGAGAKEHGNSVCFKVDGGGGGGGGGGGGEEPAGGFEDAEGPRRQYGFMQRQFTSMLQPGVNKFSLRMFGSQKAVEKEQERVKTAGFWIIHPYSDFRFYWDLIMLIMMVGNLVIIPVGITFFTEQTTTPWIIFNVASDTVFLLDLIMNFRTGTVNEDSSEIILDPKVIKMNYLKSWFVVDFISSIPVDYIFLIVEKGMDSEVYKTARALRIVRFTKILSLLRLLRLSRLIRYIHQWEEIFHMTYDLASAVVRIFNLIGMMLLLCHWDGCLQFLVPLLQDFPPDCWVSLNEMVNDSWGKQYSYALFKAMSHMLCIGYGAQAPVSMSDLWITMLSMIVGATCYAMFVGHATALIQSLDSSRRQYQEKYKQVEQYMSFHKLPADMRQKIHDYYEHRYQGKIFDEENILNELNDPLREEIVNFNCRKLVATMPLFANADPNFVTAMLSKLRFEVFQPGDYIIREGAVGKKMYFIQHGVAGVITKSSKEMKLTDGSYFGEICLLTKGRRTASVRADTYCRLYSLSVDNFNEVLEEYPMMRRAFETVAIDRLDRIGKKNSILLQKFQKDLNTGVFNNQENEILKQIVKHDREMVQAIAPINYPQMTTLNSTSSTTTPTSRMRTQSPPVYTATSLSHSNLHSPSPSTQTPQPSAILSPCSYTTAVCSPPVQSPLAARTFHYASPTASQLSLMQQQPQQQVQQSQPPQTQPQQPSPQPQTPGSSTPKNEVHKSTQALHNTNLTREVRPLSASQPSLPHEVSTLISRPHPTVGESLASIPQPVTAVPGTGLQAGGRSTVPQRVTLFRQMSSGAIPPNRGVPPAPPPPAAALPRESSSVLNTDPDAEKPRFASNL",
  "test": "MPSD FLIPR 96 well hyperpolarization assay, HCN1",
  "assay_type": "cell-based",
  "parameters": "blockade of hyperpolarization (change in fluorescence), FIG. 4 legend: dose or concentration left out as unconfirmed",
  "procedure": "The above-described assay was modified for use with the FLIPR®^96 or FLEX^96 96 well plate format. In brief, cells stably expressing HCN channels were plated at 40-80×10^3 cells/plate in 100-150 μl/well of DMEM supplemented with 10% fetal bovine serum, 1× NEAA, and 1× penicillin/streptomycin. Cells were cultured for 24-48 hours in a 5% CO2/air humidifiedincubator at 37° C. Cells were incubated in 30 μl/well of HBSS containing MPSD, as described above, for 15-45 minutes at room temperature.\nMembrane potentials were measured at room temperature (21°-23°) using a FLIPR® system or a FLEXSTATION® (Molecular Devices of Sunnydale, Calif.). Control cells were incubated in HBSS/MPSD without a test agent. For identification of HCN channel modulators, cells were incubated in HBSS/MPSD and the presence of a test agent as described in Examples 5 and 6 herein below.\nHEK-293H cells stably expressing HCN1 or HCN3 channels were each plated at 40-80×10^3 cells/plate in a FLIPR®^96 well format in 100-150 μl/ well of DMEM supplemented with 10% fetal bovine serum and penicillin/streptomycin. The cells were cultured for 24-48 hours in a 5% CO2/air humidified incubatorat 37° C.\n[…] Cells were incubated for 15 to 45 minutes. […] The change in fluorescence (ΔF) was measured for a total assay time of about 100 seconds. […]",
  "data": [
    {"smiles": "CCN(c1ccccc1)c1cc(=NC)n(C)c(C)n1.Cl", "note": "[ZD7288]", "values": [
      {"measurement": "blockade of hyperpolarization (change in fluorescence)", "setting": "50 μM ZD7288, HEK-293H HCN1, about 100 seconds", "value": "effectively blocked hyperpolarization"},
      {"measurement": "blockade of hyperpolarization (change in fluorescence), FIG. 4 legend", "setting": "cells expressing HCN1", "value": "effectively blocked hyperpolarization"}
    ]}
  ]
}
